# Assay results: patent US7094781B2, “Sulfamides and their use as endothelin receptor antagonists” (Actelion Pharmaceuticals Ltd., priority 2000, dated 2006)
# Tests used:
# [1] = biological target: T1, human recombinant ETA receptor (Homo sapiens, UniProt P25101); assay: Inhibition of [125I]ET-1 binding to membranes from CHO cells carrying human ETA receptors
# T1 construct: expressed in transfected cells; host or cells: CHO cells (microsomal membranes)
# T1 sequence (P25101 21-427): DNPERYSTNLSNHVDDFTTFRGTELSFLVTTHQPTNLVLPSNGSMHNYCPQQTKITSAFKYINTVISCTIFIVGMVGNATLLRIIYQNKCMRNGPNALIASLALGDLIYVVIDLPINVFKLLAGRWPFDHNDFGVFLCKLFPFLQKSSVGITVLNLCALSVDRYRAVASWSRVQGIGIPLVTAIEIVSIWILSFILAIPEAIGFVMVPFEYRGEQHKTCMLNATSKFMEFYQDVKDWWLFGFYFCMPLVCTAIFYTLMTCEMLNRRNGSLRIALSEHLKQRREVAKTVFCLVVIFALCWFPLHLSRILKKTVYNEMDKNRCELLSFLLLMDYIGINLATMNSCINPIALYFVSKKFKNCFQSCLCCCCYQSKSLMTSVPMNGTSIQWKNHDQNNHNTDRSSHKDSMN
# [2] = biological target: T2, human recombinant ETB receptor (Homo sapiens, UniProt P24530); assay: Inhibition of [125I]ET-1 binding to membranes from CHO cells carrying human ETB receptors
# T2 construct: expressed in transfected cells; host or cells: CHO cells (microsomal membranes)
# T2 sequence (P24530 27-442): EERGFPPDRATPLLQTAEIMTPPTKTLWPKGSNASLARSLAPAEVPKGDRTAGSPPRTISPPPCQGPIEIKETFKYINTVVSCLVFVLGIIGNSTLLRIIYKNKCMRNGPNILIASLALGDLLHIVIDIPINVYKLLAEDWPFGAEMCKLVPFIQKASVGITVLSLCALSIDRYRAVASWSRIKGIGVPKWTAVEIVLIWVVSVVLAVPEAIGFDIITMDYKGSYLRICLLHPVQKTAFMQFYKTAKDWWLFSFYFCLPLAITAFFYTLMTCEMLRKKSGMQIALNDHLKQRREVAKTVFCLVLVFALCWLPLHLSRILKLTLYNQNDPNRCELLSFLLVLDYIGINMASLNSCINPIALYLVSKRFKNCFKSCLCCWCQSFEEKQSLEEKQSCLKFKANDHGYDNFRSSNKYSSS
IC50 [1] [µM],IC50 [2] [µM],SMILES
0.721,8.43,"COc1ccccc1Oc1c(NS(=O)(=O)Nc2ccc(C(C)C)cc2)nc(-c2ccncc2)nc1OC [Example 1, 4-i-propyl-phenyl sulfamic acid-[6-methoxy-5-(o-methoxyphenoxy)-2-(4-pyridyl)-pyrimidin-4-yl]-amide]"
2.19,8.74,"C=CCOc1nc(-c2ccncc2)nc(NS(=O)(=O)Nc2ccc(C(C)C)cc2)c1Oc1ccccc1OC [Example 2, 4-i-propyl-phenyl sulfamic acid-[6-allyloxy-5-(o-methoxyphenoxy)-2-(4-pyridyl)-pyrimidin-4-yl]-amide]"
1.38,0.744,"COc1ccccc1Oc1c(NS(=O)(=O)Nc2ccc(C(C)C)cc2)nc(-c2ccncc2)nc1OCCO [Example 3, 4-i-propyl-phenyl sulfamic acid-[6-(2-hydroxy-ethoxy)-5-(o-methoxyphenoxy)-2-(4-pyridyl)-pyrimidin-4-yl]-amide]"
0.096,0.68,"COc1ccccc1Oc1c(NS(=O)(=O)Nc2ccc(C(C)C)cc2)nc(-c2ccncc2)nc1OCCOc1ncccn1 [Example 4, 4-i-propyl-phenyl sulfamic acid-[6-[2-(pyrimidin-2-yloxy)-ethoxy]-5-(o-methoxyphenoxy)-2-(4-pyridyl)-pyrimidin-4-yl]-amide]"
0.286,7.24,"COc1ccccc1Oc1c(NS(=O)(=O)Nc2ccc(C(C)C)cc2)nc(-c2ccncc2)nc1OCCOc1ccc(C(F)(F)F)cn1 [Example 6, 4-i-propyl-phenyl sulfamic acid-[6-[2-(5-trifluoromethyl-pyridin-2-yloxy)-ethoxy]-5-(o-methoxy-phenoxy)-2-(4-pyridyl)-pyrimidin-4-yl]-amide]"
1.24,9.47,"CCNS(=O)(=O)Nc1nc(-c2ccncc2)nc(OC)c1Oc1ccccc1OC [Example 7, ethyl sulfamic acid-[6-methoxy-5-(o-methoxy-phenoxy)-2-(4-pyridyl)-pyrimidin-4-yl]-amide]"
1.16,> 10,"COc1ccccc1Oc1c(NS(=O)(=O)Nc2ccc(C)cn2)nc(-c2ccncc2)nc1OC [Example 8, 5-methyl-pyridine-2-sulfamic acid-[6-methoxy-5-(o-methoxy-phenoxy)-2-(4-pyridyl)-4-pyrimidinyl]-amide]"
3.63,> 10,"COc1ccccc1Oc1c(NS(=O)(=O)Nc2ccccn2)nc(-c2ccncc2)nc1OC [Example 9, pyridine-2-sulfamic acid-[6-methoxy-5-(o-methoxyphenoxy)-2-(4-pyridyl)-4-pyrimidinyl]-amide]"
2.87,0.193,"COc1ccccc1Oc1c(NS(=O)(=O)Nc2ccc(C(C)(C)C)cc2)nc(-c2ccncc2)nc1OCCO [Example 10, 4-t-butyl-phenyl sulfamic acid-[6-(2-hydroxy-ethoxy)-5-(o-methoxy-phenoxy)-2-(4-pyridyl)-4-pyrimidinyl]-amide]"
0.059,> 10,"Cc1ccc(NS(=O)(=O)Nc2ncnc(OCCOc3ncc(Br)cn3)c2-c2ccc(C)cc2)cc1 [Example 12, 4-methyl-phenyl sulfamic acid-[6-[2-(5-bromo-pyrimidin-2-yloxy)-ethoxy]-5-(p-tolyl)-4-pyrimidinyl]-amide]"
0.0185,2.16,COc1cnc(OCCOc2ncnc(NS(=O)(=O)NCc3ccccc3)c2-c2ccc(Cl)cc2)nc1 [Example 15]
0.045,8.45,Cc1cnc(OCCOc2ncnc(NS(=O)(=O)NCc3ccccc3)c2-c2ccc(Cl)cc2)nc1 [Example 16]
0.007,1,COc1cnc(OCCOc2ncnc(NS(=O)(=O)NCc3cccs3)c2-c2ccc(Cl)cc2)nc1 [Example 21]
0.012,0.434,O=S(=O)(NCc1cccs1)Nc1ncnc(OCCOc2ccc(C(F)(F)F)cn2)c1-c1ccc(Cl)cc1 [Example 22]
0.0036,1.59,COc1cnc(OCCOc2ncnc(NS(=O)(=O)NCc3ccco3)c2-c2ccc(Cl)cc2)nc1 [Example 23]
0.0022,2.5,O=S(=O)(NCc1ccco1)Nc1ncnc(OCCOc2ncc(Br)cn2)c1-c1ccc(Cl)cc1 [Example 24]
0.054,> 10,O=S(=O)(NCc1ccccc1)Nc1nc(-c2ncccn2)nc(OCCOc2ncc(Br)cn2)c1-c1ccccc1 [Example 26]
0.0135,–,CCc1ccc(-c2c(NS(=O)(=O)NCc3ccccc3)ncnc2OCCOc2ncc(Br)cn2)cc1 [Example 29]
0.0037,0.609,CSc1cnc(OCCOc2nc(-c3ccncc3)nc(NS(=O)(=O)NCc3ccccc3)c2-c2ccc(C)cc2)nc1 [Example 33]
0.023,3.27,Cc1ccc(-c2c(NS(=O)(=O)NCc3ccccc3)nc(-c3ccncc3)nc2OCCOC(=O)Nc2ccccn2)cc1 [Example 34]
0.0327,0.524,COc1ccccc1Oc1c(NS(=O)(=O)NCc2ccccc2)nc(-c2ncccn2)nc1OCCOc1ncccn1 [Example 39]
0.0035,0.146,COc1ccccc1Oc1c(NS(=O)(=O)NCc2ccccc2)nc(-c2ncccn2)nc1OCCOC(=O)Nc1cnccn1 [Example 42]

IC50 [1] [µM],IC50 [2] [µM],SMILES
0.0068,0.214,COc1ccccc1Oc1c(NS(=O)(=O)NCc2ccccc2)nc(-c2ncccn2)nc1OCCOC(=O)Nc1ccccc1 [Example 43]
0.00146,0.0466,COc1ccc(CNS(=O)(=O)Nc2nc(-c3ncccn3)nc(OCCOc3ncc(Br)cn3)c2Oc2ccccc2OC)cc1 [Example 48]
0.00082,0.0254,COc1ccc(CNS(=O)(=O)Nc2nc(-c3ncccn3)nc(OCCOc3ncc(OC)cn3)c2Oc2ccccc2OC)cc1 [Example 49]
0.00087,0.0075,COc1ccc(CNS(=O)(=O)Nc2nc(-c3ncccn3)nc(OCCOC(=O)Nc3ccccn3)c2Oc2ccccc2OC)cc1 [Example 50]
0.0052,0.08,COc1cnc(OCCOc2nc(-c3ncccn3)nc(NS(=O)(=O)NCc3ccc(Cl)cc3)c2Oc2ccccc2OC)nc1 [Example 55]
0.0069,0.164,COc1ccccc1Oc1c(NS(=O)(=O)NCc2ccc(Cl)cc2)nc(-c2ncccn2)nc1OCCOc1ncc(Br)cn1 [Example 56]
0.0049,0.0358,COc1ccccc1Oc1c(NS(=O)(=O)NCc2ccc(Cl)cc2)nc(-c2ncccn2)nc1OCCOC(=O)Nc1ccccn1 [Example 57]
0.0056,0.124,COc1cnc(OCCOc2nc(-c3ncccn3)nc(NS(=O)(=O)NCc3ccco3)c2Oc2ccccc2OC)nc1 [Example 59]
0.0034,0.232,COc1ccccc1Oc1c(NS(=O)(=O)NCc2ccco2)nc(-c2ncccn2)nc1OCCOc1ncc(Br)cn1 [Example 60]
0.0016,0.2,COc1ccccc1Oc1c(NS(=O)(=O)NCc2ccco2)nc(-c2ncccn2)nc1OCCOC(=O)Nc1cnccn1 [Example 61]
0.0236,–,COc1ccccc1Oc1c(NS(=O)(=O)NCc2ccccc2)nc(-c2cnccn2)nc1OCCOc1ncc(Br)cn1 [Example 71]
0.0019,–,COc1ccccc1Oc1c(NS(=O)(=O)NCc2ccccc2)nc(-c2ccncc2)nc1OCCOc1ncc(Br)cn1 [Example 73]
0.0018,0.164,COc1ccccc1Oc1c(NS(=O)(=O)NCc2ccccc2)nc(-c2ccncc2)nc1OCCOc1ncc(SC)cn1 [Example 74]
0.016,–,COc1ccccc1Oc1c(NS(=O)(=O)NCc2ccccc2)nc(C2CC2)nc1OCCOc1ncc(Br)cn1 [Example 88]
0.0063,–,COc1ccccc1Oc1c(NS(=O)(=O)NCc2ccccc2)ncnc1OCCOc1ncc(Br)cn1 [Example 96]
0.00088,–,CCNS(=O)(=O)Nc1ncnc(OCCOc2ncc(Br)cn2)c1-c1ccc(Br)cc1 [Example 104]
0.0295,–,CCNS(=O)(=O)Nc1nc(-c2ncccn2)nc(OCCOc2ncc(Br)cn2)c1Oc1ccccc1OC [Example 184]
0.0098,–,COc1ccccc1Oc1c(NS(=O)(=O)N(C)Cc2ccccc2)nc(-c2ncccn2)nc1OCCOc1ncc(Br)cn1 [Example 187]
0.0044,–,O=S(=O)(Nc1ncnc(OCCOc2ncc(Br)cn2)c1-c1ccc(Br)cc1)NC1CC1 [Example 196]
0.00103,–,"COc1ccccc1Oc1c(NS(=O)(=O)NCc2ccccc2)nc(N2CCOCC2)nc1OCCOc1ncc(Br)cn1 [Example 206, Benzylsulfamic acid [6-[2-(5-bromo-pyrimidin-2-yloxy)-ethoxy]-5-(2-methoxy-phenoxy)-2-morpholin-4-yl-pyrimidin-4-yl]-amide]"
0.0031,–,"COc1ccc(Cl)c(Oc2c(NS(=O)(=O)NCc3ccccc3)ncnc2OCCOc2ncc(Br)cn2)c1 [Example 212, Benzylsulfamic acid [6-[2-(5-bromo-pyrimidin-2-yloxy)-ethoxy]-5-(2-chloro-5-methoxy-phenoxy)-pyrimidin-4-yl]-amide]"
